Assay results: BigSolDB 2.1

C[C@@H]1O[C@@H]1P(=O)([O-])[O-].[Na+].[Na+]
solubility (mole fraction)
Details	283.15 K	288.15 K	293.15 K	298.15 K	303.15 K	308.15 K	313.15 K	318.15 K	323.15 K
in DMF	0.000606	0.000532	0.000481	0.000443	0.000396	0.000358	0.000339	0.000312	0.000291
in acetone	0.000186	0.00016	0.000138	0.000115	9.72e-05	8.3e-05	7.09e-05	6.07e-05	5.47e-05
in cyclohexane	0.000403	0.000353	0.0003	0.000252	0.000226	0.000196	0.000175	0.000151	0.000128
in ethanol	0.00109	0.000934	0.000769	0.000643	0.000548	0.000463	0.000383	0.000316	0.000266
in methanol	0.0177	0.0165	0.0152	0.0138	0.0129	0.0121	0.0111	0.0105	0.00984
in n-propanol	0.000108	8.01e-05	6.19e-05	4.52e-05	3.09e-05	1.95e-05	1.34e-05	1.04e-05	7.1e-06
